IC50 data for eight compounds are collected here from PubChem BioAssay AID651788 (The Scripps Research Institute Molecular Screening Center, 2012).

Structures are written as SMILES. Calls of active or inactive are those of the source.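 How the source made its calls: active means IC50 for SRC3 coactivator inhibition, the dose giving half inhibition, at or below 10 µM; inactive means IC50 above 10 µM.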

The IC50 is the midpoint of a concentration-inhibition curve.

The target of the test is Nuclear receptor coactivator 3 (Homo sapiens) (UniProt Q9Y6Q9). The experiment in a line: inhibition of GAL4-SRC3 reporter transcription – cell-based, HEK293, GAL4-SRC3 luciferase, powder samples, late-stage follow-up (AID 651788). Particulars: luminescence.
Nuclear receptor coactivator 3 (Homo sapiens), sequence (Q9Y6Q9 whole entry, looked up, the tested form may be a part): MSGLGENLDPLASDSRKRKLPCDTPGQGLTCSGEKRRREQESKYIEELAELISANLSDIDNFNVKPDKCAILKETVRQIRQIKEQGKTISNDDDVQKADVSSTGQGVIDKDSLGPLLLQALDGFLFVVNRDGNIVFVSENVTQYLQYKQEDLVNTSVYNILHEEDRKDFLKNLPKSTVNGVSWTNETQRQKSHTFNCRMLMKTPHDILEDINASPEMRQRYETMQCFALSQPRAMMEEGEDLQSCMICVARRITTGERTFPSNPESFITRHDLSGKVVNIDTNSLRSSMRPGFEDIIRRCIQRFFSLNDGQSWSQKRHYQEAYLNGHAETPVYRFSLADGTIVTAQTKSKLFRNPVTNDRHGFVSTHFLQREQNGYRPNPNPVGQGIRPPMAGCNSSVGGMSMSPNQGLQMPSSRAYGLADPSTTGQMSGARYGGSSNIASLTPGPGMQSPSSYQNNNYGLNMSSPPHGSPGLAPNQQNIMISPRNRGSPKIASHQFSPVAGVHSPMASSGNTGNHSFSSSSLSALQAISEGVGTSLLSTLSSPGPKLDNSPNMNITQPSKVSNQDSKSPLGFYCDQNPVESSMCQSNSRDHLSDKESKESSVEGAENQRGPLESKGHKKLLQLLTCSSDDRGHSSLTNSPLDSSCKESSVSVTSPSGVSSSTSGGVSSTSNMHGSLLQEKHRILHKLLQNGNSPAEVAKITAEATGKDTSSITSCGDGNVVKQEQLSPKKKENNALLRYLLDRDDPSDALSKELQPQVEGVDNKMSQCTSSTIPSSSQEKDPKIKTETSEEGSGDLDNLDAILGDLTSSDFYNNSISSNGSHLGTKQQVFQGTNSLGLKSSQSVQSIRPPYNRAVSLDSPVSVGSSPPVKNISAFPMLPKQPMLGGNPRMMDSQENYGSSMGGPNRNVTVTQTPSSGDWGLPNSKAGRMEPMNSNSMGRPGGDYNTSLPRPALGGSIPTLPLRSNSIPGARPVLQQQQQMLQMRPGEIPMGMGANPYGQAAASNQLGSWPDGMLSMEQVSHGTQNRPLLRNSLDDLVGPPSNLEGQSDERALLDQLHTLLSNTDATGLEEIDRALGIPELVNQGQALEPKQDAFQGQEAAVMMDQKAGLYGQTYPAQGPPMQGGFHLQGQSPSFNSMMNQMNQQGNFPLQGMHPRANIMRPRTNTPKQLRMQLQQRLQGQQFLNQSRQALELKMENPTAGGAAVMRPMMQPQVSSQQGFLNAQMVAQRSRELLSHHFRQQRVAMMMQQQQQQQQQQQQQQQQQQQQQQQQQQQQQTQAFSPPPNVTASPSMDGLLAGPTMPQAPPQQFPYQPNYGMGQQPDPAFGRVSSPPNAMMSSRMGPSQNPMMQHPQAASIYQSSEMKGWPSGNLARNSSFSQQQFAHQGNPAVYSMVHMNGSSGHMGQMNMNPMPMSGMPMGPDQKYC

Take `Cc1ccc(OCC(=O)c2cc(C)n(-c3ccccc3)c2C)c([N+](=O)[O-])n1`: the IC50 entry is “inactive”. In the case of `CC(C)(C)c1ccc(-c2noc(CCC(=O)Nc3cccnc3)n2)cc1` it was > 12 µM (inactive). Then `OCCN1CCN(C(=S)c2ccc(-c3ccccc3)cc2)CC1`, with 4.97 µM. `CN1C(=O)C2(C(C#N)=C(N)N(c3cc(Cl)cc(Cl)c3)C3=C2C(=O)CC(C)(C)C3)c2ccccc21` (stereo not drawn): the IC50 was 4.44 µM. Regarding `O=C(COC(=O)c1ccc[nH]c1=O)Nc1ccc(N2CCCCC2)cc1`, the IC50 was 8.32 µM. On to `O=C(Nc1ccccc1Oc1ccccc1)c1cc([N+](=O)[O-])ccc1Cl`, for which the IC50 is 3.1 µM. In the case of `CCCNC(=O)c1nnsc1S(=O)(=O)c1ccc(Cl)cc1`, the half-maximal inhibitory concentration (IC50) was 3.96 µM. In the case of `CN1C(=O)C2(C(C#N)=C(N)N(c3cc(Cl)cc(Cl)c3)C3=C2C(=O)CCC3)c2ccccc21` (stereo not drawn) it was 5.74 µM.
